Assay results as given in patent publication US20230381192A1, “METHODS FOR CONTROLLING AND PREDICTING RECOVERY AFTER NMBA ADMINISTRATION” (Cornell University, priority 2020, published 2023).

Tests used:
Rhesus monkeys = assay: Spontaneous recovery from NMB (twitch 5% to 95% of baseline) after bolus or infusion in Rhesus monkeys under isoflurane; format: in vivo, Rhesus monkey; settings: for 5%-95% Interval: mean ± SD
Description: Rhesus monkeys under isoflurane anesthesia were administered a bolus dose of either RP2000 or RP1000 at a dose equal to 1× to 10× the ED95 in Rhesus monkeys of the administered compound (ED95,Rp1000=0.040 mg/kg; ED95,RP2000=0.053 mg/kg). Twitch (0.15 Hz) and TOF (2 Hz×2 seconds) were recorded throughout the 6 -10 hours experiments. Time to spontaneous recovery after bolus administration, characterized by recovery of twitch from 5% to 95% of baseline was measured.
Separately, continuous infusions of 20-180 minutes duration were given (to separate subjects), and after discontinuation of infusion, time to spontaneous recovery of NMB, characterized by recovery of twitch from 5% to 95% of baseline was measured.

[1] = Predicted spontaneous recovery after RP2000 in patients under inhaled anesthesia; format: in vivo, human; settings: doses up to 2.5-3× the ED95
Text: While not wishing to be bound by theory, it is believed that the highly reproducible half-life is due to degradation of RP1000 through cysteine adduction (e.g., by reaction with glutathione). The advantages imparted by the understanding of the pharmacodynamics of RP1000 include, but are not limited to, that the level of recovery of function may be easily predicted in human patients. […] This disclosure therefore reflects this prediction.

COc1ccc(C[C@@H]2c3cc(OC)c(OC)cc3CC[N@@+]2(C)CCCOC(=O)/C=C/C(=O)OCCC[N+]2(Cc3ccc(OC)c(OC)c3)CCOCC2)cc1.[Cl-].[Cl-] [RP2000, 4-(3-(((E)-4-(3-((1R)-6,7-dimethoxy-1-(4-methoxybenzyl)-2-methyl-1,2,3 4-tetrahydro-2-isoquinolin-2-ium-2-yl)propoxy)-4-oxobut-2-enoyl)oxy)propyl)-4-(3,4-dimethoxybenzyl)morpholin-4-ium]
ED95 in Rhesus monkeys (Rhesus monkeys; Rhesus monkeys, isoflurane anesthesia): 0.053 mg/kg
5%-95% Interval (Rhesus monkeys; after continuous infusion of 20-180 minutes): 6.2 ± 1.4 min
5%-95% Interval (Rhesus monkeys; bolus dose 0.10 mg/kg): 6.1 ± 1.6 min
5%-95% Interval (Rhesus monkeys; bolus dose 0.20 mg/kg): 6.4 ± 1.9 min
5%-95% Interval (Rhesus monkeys; bolus dose 0.50 mg/kg): 6.7 ± 2.4 min
predictability of spontaneous recovery [1]: highly predictable
